The text below walks through data of PubChem BioAssay AID1259407 (Chemical Carcinogenesis Research Information System (CCRIS), 2018).

The data set has as its system CCRIS mutagenicity, Ames/micronucleus/aberration tests. Briefly: CCRIS mutagenicity studies.

Activity calls are given as the source filed them. How the calls were made is not given here.

For `FC(F)(F)C(F)(F)C(F)(F)C(F)(F)I`, the mutagenic call by setting is: (End Point: IN VITRO CHROMOSOMAL ABERRATIONS, Test System: HUMAN PERIPHERAL BLOOD LYMPHOCYTES, Metabolic Activation: NONE) “inactive; negative”; (End Point: IN VITRO CHROMOSOMAL ABERRATIONS, Test System: HUMAN PERIPHERAL BLOOD LYMPHOCYTES, Metabolic Activation: RAT, LIVER, S-9, AROCLOR 1254) “inactive; negative”; (Test System: AMES SALMONELLA TYPHIMURIUM, Strain/Indicator: TA98, Metabolic Activation: NONE) “inactive; negative”; (Test System: AMES SALMONELLA TYPHIMURIUM, Strain/Indicator: TA98, Metabolic Activation: RAT, LIVER, S-9, AROCLOR 1254) “inactive; negative”; (Test System: AMES SALMONELLA TYPHIMURIUM, Strain/Indicator: TA100, Metabolic Activation: NONE) “inactive; negative”; (Test System: AMES SALMONELLA TYPHIMURIUM, Strain/Indicator: TA100, Metabolic Activation: RAT, LIVER, S-9, AROCLOR 1254) “inactive; negative”. Also, the mutagenic call is “inactive; negative” (Test System: AMES SALMONELLA TYPHIMURIUM, Strain/Indicator: TA1535, Metabolic Activation: NONE); “inactive; negative” (Test System: AMES SALMONELLA TYPHIMURIUM, Strain/Indicator: TA1535, Metabolic Activation: RAT, LIVER, S-9, AROCLOR 1254); “inactive; negative” (Test System: AMES SALMONELLA TYPHIMURIUM, Strain/Indicator: TA1537, Metabolic Activation: NONE); “inactive; negative” (Test System: AMES SALMONELLA TYPHIMURIUM, Strain/Indicator: TA1537, Metabolic Activation: RAT, LIVER, S-9, AROCLOR 1254); “inactive; negative” (Test System: E. COLI, Strain/Indicator: WP2UVRA, Metabolic Activation: NONE); “inactive; negative” (Test System: E. COLI, Strain/Indicator: WP2UVRA, Metabolic Activation: RAT, LIVER, S-9, AROCLOR 1254).
For the compound `CC(C)COS(=O)(=O)c1ccccc1`, the mutagenic call was “active; positive” (Test System: AMES SALMONELLA TYPHIMURIUM, Strain/Indicator: TA98, Metabolic Activation: NONE, Method: STANDARD PLATE); “active; positive” (Test System: AMES SALMONELLA TYPHIMURIUM, Strain/Indicator: TA98, Metabolic Activation: RAT, LIVER, S-9, Method: STANDARD PLATE); “active; positive” (Test System: AMES SALMONELLA TYPHIMURIUM, Strain/Indicator: TA100, Metabolic Activation: RAT, LIVER, S-9, Method: STANDARD PLATE).
